Data taken from US12252524B2, “GIP/GLP1 co-agonist compounds” (Eli Lilly and Company, priority 2018, dated 2025).
Numbered stars: 1 amine (or outer) side, 2 acyl side, 3 side chain; on linkers, the order of the positions; unused ones are H or OH. Square brackets hold non-standard residues; d marks the D form. Side chains are listed from the residue outwards. Peptide text beside a SMILES is read from it. * marks the point of attachment. C20 diacid = O=C(O)CCCCCCCCCCCCCCCCCCC(=O)*; αMePhe(2-F) = C[C@](N)(Cc1ccccc1F)C(=O)O; γGlu = O=C(O)[C@H](CCC(=O)[*:2])N[*:1]; 3Pal = N[C@@H](Cc1cccnc1)C(=O)O; 4Pal = N[C@@H](Cc1ccncc1)C(=O)O; αMeL = CC(C)C[C@](C)(N)C(=O)O; AEEA = NCCOCCOCC(=O)O; Aib = CC(C)(N)C(=O)O

How the values were obtained:
[1] = biological target: T1, human Gcg receptor (Homo sapiens, UniProt P47871); test: [125I]-Glucagon binding (SPA), human Gcg receptor; conditions: read-out: hGLcgR Ki, nM (SEM, n)
T1 construct: expressed in transfected cells; crude membranes
Method in brief: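 Scintillation counts are taken after membranes and WGA beads incubate and settle for 12 hours at room temperature. Buffer is 25 mM HEPES, pH 7.4, with CaCl2, MgCl2, bacitracin and Tween-20. Ki values, from four-parameter IC50 fits, are geometric means over independent days.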

[2] = biological target: T2, human GIP receptor (Homo sapiens, UniProt P48546); test: [125I]-GIP binding (SPA), human GIP receptor; conditions: read-out: hGIPR Ki, nM (SEM, n)
T2 construct: expressed in transfected cells; crude membranes
T2 sequence (P48546 22-466): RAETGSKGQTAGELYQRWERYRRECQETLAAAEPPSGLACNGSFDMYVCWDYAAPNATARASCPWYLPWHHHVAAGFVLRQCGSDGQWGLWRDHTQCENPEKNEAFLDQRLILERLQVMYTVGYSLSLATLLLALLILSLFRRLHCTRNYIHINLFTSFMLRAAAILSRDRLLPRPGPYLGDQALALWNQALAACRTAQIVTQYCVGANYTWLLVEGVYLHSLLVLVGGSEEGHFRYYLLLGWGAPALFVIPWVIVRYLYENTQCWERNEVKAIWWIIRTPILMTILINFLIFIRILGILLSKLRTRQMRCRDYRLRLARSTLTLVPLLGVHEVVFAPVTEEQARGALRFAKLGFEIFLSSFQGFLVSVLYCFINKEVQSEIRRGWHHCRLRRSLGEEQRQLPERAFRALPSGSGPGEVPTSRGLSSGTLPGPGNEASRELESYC

[3] = biological target: human GLP-1 receptor (GLP-1R) (Homo sapiens, UniProt P43220); test: cAMP pharmacological functional assay in presence of casein, hGLP-1R; type: cell-based; conditions: HEK293 cells expressing hGLP-1R, 0.1% Casein, geometric mean; read-out: hGLP1R cAMP Rel EC50 nM (SEM, n)
[4] = biological target: T3, gastric inhibitory peptide receptor (GIPR) (Homo sapiens, UniProt P48546); test: cAMP pharmacological functional assay in presence of casein, hGIPR; type: cell-based; conditions: HEK293 cells expressing hGIPR, 0.1% Casein, geometric mean; read-out: hGIPR cAMP Rel EC50 nM (SEM, n)
T3 sequence (P48546 22-466): T2 sequence (P48546 22-466)

[5] = biological target: human GLP-1R (Homo sapiens, UniProt P43220); test: [125I]-GLP-1 binding (SPA), human GLP-1 receptor; design: expressed in transfected cells; crude membranes; conditions: read-out: hGLP1R Ki, (nM) (SEM, n)
Method in brief: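 Frozen cell pellets are lysed on ice in hypotonic Tris buffer, pH 7.5, homogenized, and centrifuged to a membrane pellet resuspended at about 1 to 3 mg/mL. Binding is then measured in HEPES-based buffer at pH 7.4, and curves are fitted to give IC50 and Ki.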

T1 sequence (P47871 26-477): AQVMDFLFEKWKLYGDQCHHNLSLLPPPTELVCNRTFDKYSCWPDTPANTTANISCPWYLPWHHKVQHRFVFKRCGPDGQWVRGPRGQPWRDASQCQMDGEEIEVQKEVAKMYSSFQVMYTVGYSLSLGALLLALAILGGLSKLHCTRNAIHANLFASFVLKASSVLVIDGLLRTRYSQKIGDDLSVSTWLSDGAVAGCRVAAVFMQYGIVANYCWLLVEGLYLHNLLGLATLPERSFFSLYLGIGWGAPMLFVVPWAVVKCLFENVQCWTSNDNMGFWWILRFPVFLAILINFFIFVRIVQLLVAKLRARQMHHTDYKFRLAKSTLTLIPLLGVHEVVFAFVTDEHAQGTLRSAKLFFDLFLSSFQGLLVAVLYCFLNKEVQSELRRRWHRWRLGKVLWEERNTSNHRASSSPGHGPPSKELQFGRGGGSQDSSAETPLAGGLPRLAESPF
Chain of human GLP-1R (P43220 24-463): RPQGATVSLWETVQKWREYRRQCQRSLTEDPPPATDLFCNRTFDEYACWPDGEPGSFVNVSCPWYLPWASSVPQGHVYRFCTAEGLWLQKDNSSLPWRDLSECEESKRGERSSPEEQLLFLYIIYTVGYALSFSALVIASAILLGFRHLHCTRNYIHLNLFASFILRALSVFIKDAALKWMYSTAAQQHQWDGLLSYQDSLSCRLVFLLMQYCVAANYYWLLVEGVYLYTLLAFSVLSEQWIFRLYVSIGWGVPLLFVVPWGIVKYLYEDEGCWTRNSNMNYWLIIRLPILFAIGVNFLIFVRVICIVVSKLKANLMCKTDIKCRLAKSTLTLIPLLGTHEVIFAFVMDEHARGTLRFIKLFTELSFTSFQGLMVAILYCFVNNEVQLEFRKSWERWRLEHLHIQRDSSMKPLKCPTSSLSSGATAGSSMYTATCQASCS
Chain of human GLP-1 receptor (GLP-1R) (P43220 24-463): as above

**Q.** For `CC[C@H](C)[C@H](NC(=O)[C@H](CC(C)C)NC(=O)[C@H](Cc1ccc(O)cc1)NC(=O)[C@H](CCC(=O)O)NC(=O)[C@@H](NC(=O)[C@H](Cc1ccccc1)NC(=O)[C@H](CCC(=O)O)NC(=O)C(C)(C)NC(=O)[C@H](CCC(N)=O)NC(=O)[C@H](C)NC(=O)[C@H](CCCCNC(=O)COCCOCCNC(=O)COCCOCCNC(=O)CC[C@H](NC(=O)CCCCCCCCCCCCCCCCCCC(=O)O)C(=O)O)NC(=O)[C@H](CCC(=O)O)NC(=O)[C@H](CC(=O)O)NC(=O)[C@H](CC(C)C)NC(=O)[C@](C)(CC(C)C)NC(=O)[C@@H](NC(=O)[C@H](CO)NC(=O)[C@H](Cc1c[nH]cn1)NC(=O)[C@H](CC(=O)O)NC(=O)[C@H](CO)NC(=O)[C@@H](NC(=O)[C@](C)(Cc1ccccc1F)NC(=O)[C@@H](NC(=O)CNC(=O)[C@H](CCC(=O)O)NC(=O)C(C)(C)NC(=O)[C@@H](N)Cc1ccc(O)cc1)[C@@H](C)O)[C@@H](C)O)[C@@H](C)CC)[C@@H](C)CC)C(=O)N[C@@H](CCC(=O)O)C(=O)NCC(=O)NCC(=O)N1CCC[C@H]1C(=O)N[C@@H](CO)C(=O)N[C@@H](CO)C(=O)NCC(=O)N[C@@H](C)C(=O)N1CCC[C@H]1C(=O)N1CCC[C@H]1C(=O)N1CCC[C@H]1C(=O)N[C@@H](CO)C(N)=O` [Example 154] (H-Y[Aib]EGT[αMePhe(2-F)]TSDHSI[αMeL]LDEK([AEEA-AEEA-γGlu-C20 diacid])AQ[Aib]EFIEYLIEGGPSSGAPPPS-NH2), which Ki [1] is on record?
**A.** 762 nM

**Q.** And the Ki [2]?
**A.** 0.061 nM

**Q.** What about the EC50 [3] of the same compound?
**A.** 0.0393 nM

**Q.** What about the EC50 [4] of the same compound?
**A.** 0.0266 nM

**Q.** What about the Ki [5] of the same compound?
**A.** 5.64 nM

**Q.** With `CC[C@H](C)[C@H](NC(=O)[C@H](CC(C)C)NC(=O)[C@H](Cc1ccc(O)cc1)NC(=O)[C@H](CCC(=O)O)NC(=O)[C@@H](NC(=O)[C@H](Cc1ccccc1)NC(=O)[C@H](CCC(=O)O)NC(=O)C(C)(C)NC(=O)[C@H](CCC(N)=O)NC(=O)[C@H](C)NC(=O)[C@H](CCCCNC(=O)COCCOCCNC(=O)COCCOCCNC(=O)CC[C@H](NC(=O)CCCCCCCCCCCCCCCCCCC(=O)O)C(=O)O)NC(=O)[C@H](CCC(=O)O)NC(=O)[C@H](CC(=O)O)NC(=O)[C@H](CC(C)C)NC(=O)[C@](C)(CC(C)C)NC(=O)[C@@H](NC(=O)[C@H](CO)NC(=O)[C@H](Cc1cccnc1)NC(=O)[C@H](CC(=O)O)NC(=O)[C@H](CO)NC(=O)[C@@H](NC(=O)[C@](C)(Cc1ccccc1F)NC(=O)[C@@H](NC(=O)CNC(=O)[C@H](CCC(=O)O)NC(=O)C(C)(C)NC(=O)[C@@H](N)Cc1ccc(O)cc1)[C@@H](C)O)[C@@H](C)O)[C@@H](C)CC)[C@@H](C)CC)C(=O)N[C@@H](CCC(=O)O)C(=O)NCC(=O)NCC(=O)N1CCC[C@H]1C(=O)N[C@@H](CO)C(=O)N[C@@H](CO)C(=O)NCC(=O)N[C@@H](C)C(=O)N1CCC[C@H]1C(=O)N1CCC[C@H]1C(=O)N1CCC[C@H]1C(=O)N[C@@H](CO)C(N)=O` [Example 157] (H-Y[Aib]EGT[αMePhe(2-F)]TSD[3Pal]SI[αMeL]LDEK([AEEA-AEEA-γGlu-C20 diacid])AQ[Aib]EFIEYLIEGGPSSGAPPPS-NH2) as the compound, how does the Ki [1] read?
**A.** 179 nM

**Q.** What about the Ki [2] of the same compound?
**A.** 0.0937 nM

**Q.** What about the EC50 [3] of the same compound?
**A.** 0.0431 nM

**Q.** And the EC50 [4]?
**A.** 0.0453 nM

**Q.** What about the Ki [5] of the same compound?
**A.** 8.97 nM

**Q.** With `CC[C@H](C)[C@H](NC(=O)[C@H](CC(C)C)NC(=O)[C@H](Cc1ccc(O)cc1)NC(=O)[C@H](CCC(=O)O)NC(=O)[C@@H](NC(=O)[C@H](Cc1ccccc1)NC(=O)[C@H](CCC(=O)O)NC(=O)C(C)(C)NC(=O)[C@H](CCC(N)=O)NC(=O)[C@H](C)NC(=O)[C@H](CCCCNC(=O)COCCOCCNC(=O)COCCOCCNC(=O)CC[C@H](NC(=O)CCCCCCCCCCCCCCCCCCC(=O)O)C(=O)O)NC(=O)[C@H](CCC(=O)O)NC(=O)[C@H](CC(=O)O)NC(=O)[C@H](CC(C)C)NC(=O)[C@](C)(CC(C)C)NC(=O)[C@@H](NC(=O)[C@H](CO)NC(=O)[C@H](Cc1ccncc1)NC(=O)[C@H](CC(=O)O)NC(=O)[C@H](CO)NC(=O)[C@@H](NC(=O)[C@](C)(Cc1ccccc1F)NC(=O)[C@@H](NC(=O)CNC(=O)[C@H](CCC(=O)O)NC(=O)C(C)(C)NC(=O)[C@@H](N)Cc1ccc(O)cc1)[C@@H](C)O)[C@@H](C)O)[C@@H](C)CC)[C@@H](C)CC)C(=O)N[C@@H](CCC(=O)O)C(=O)NCC(=O)NCC(=O)N1CCC[C@H]1C(=O)N[C@@H](CO)C(=O)N[C@@H](CO)C(=O)NCC(=O)N[C@@H](C)C(=O)N1CCC[C@H]1C(=O)N1CCC[C@H]1C(=O)N1CCC[C@H]1C(=O)N[C@@H](CO)C(N)=O` [Example 158] (H-Y[Aib]EGT[αMePhe(2-F)]TSD[4Pal]SI[αMeL]LDEK([AEEA-AEEA-γGlu-C20 diacid])AQ[Aib]EFIEYLIEGGPSSGAPPPS-NH2; N-terminus assumed) as the compound, how does the Ki [1] read?
**A.** 285 nM

**Q.** What about the Ki [2] of the same compound?
**A.** 0.114 nM

**Q.** What about the EC50 [3] of the same compound?
**A.** 0.0374 nM

**Q.** And the EC50 [4]?
**A.** 0.0454 nM

**Q.** And the Ki [5]?
**A.** 11.8 nM

**Q.** For `CC[C@H](C)[C@H](NC(=O)[C@H](CC(C)C)NC(=O)[C@H](Cc1ccc(O)cc1)NC(=O)[C@@H](CCC(=O)O)NC(=O)[C@@H](NC(=O)[C@H](Cc1ccccc1)NC(=O)[C@@H](NC(=O)C(C)(C)NC(=O)[C@H](CCC(N)=O)NC(=O)[C@H](C)NC(=O)[C@H](CCCCNC(=O)COCCOCCNC(=O)COCCOCCNC(=O)CC[C@H](NC(=O)CCCCCCCCCCCCCCCCCCC(=O)O)C(=O)O)NC(=O)[C@H](CCC(=O)O)NC(=O)[C@H](CC(=O)O)NC(=O)[C@H](CC(C)C)NC(=O)[C@](C)(CC(C)C)NC(=O)[C@@H](NC(=O)[C@H](CO)NC(=O)C(C)(C)NC(=O)[C@H](CC(=O)O)NC(=O)[C@H](CO)NC(=O)[C@@H](NC(=O)[C@](C)(Cc1ccccc1F)NC(=O)[C@@H](NC(=O)CNC(=O)[C@H](CCC(=O)O)NC(=O)C(C)(C)NC(=O)[C@@H](N)Cc1ccc(O)cc1)[C@@H](C)O)[C@@H](C)O)[C@@H](C)CC)[C@@H](C)O)[C@@H](C)CC)C(=O)N[C@@H](CCC(=O)O)C(=O)NCC(=O)NCC(=O)N1CCC[C@H]1C(=O)N[C@@H](CO)C(=O)N[C@@H](CO)C(=O)NCC(=O)N[C@@H](C)C(=O)N1CCC[C@H]1C(=O)N1CCC[C@H]1C(=O)N1CCC[C@H]1C(=O)N[C@@H](CO)C(N)=O` [Example 160] (H-Y[Aib]EGT[αMePhe(2-F)]TSD[Aib]SI[αMeL]LDEK([AEEA-AEEA-γGlu-C20 diacid])AQ[Aib]TFI[dE]YLIEGGPSSGAPPPS-NH2), which Ki [1] is on record?
**A.** > 1060 nM

**Q.** What about the Ki [2] of the same compound?
**A.** 5.98 nM

**Q.** And the EC50 [3]?
**A.** 0.0461 nM

**Q.** And the EC50 [4]?
**A.** 21 nM

**Q.** And the Ki [5]?
**A.** 14.4 nM

**Q.** Which Ki [1] does the source give for `CC[C@H](C)[C@H](NC(=O)[C@H](CC(C)C)NC(=O)[C@H](Cc1ccc(O)cc1)NC(=O)[C@H](CCC(=O)O)NC(=O)[C@@H](NC(=O)[C@H](Cc1ccccc1)NC(=O)[C@H](CCC(=O)O)NC(=O)C(C)(C)NC(=O)[C@H](CCC(N)=O)NC(=O)[C@H](C)NC(=O)[C@H](CCCCNC(=O)COCCOCCNC(=O)COCCOCCNC(=O)CC[C@H](NC(=O)CCCCCCCCCCCCCCCCCCC(=O)O)C(=O)O)NC(=O)[C@H](CCC(=O)O)NC(=O)[C@H](CC(=O)O)NC(=O)[C@H](CC(C)C)NC(=O)[C@](C)(CC(C)C)NC(=O)[C@@H](NC(=O)[C@H](CO)NC(=O)[C@H](Cc1ccc(O)cc1)NC(=O)[C@H](CC(=O)O)NC(=O)[C@H](CO)NC(=O)[C@@H](NC(=O)[C@](C)(Cc1ccccc1F)NC(=O)[C@@H](NC(=O)CNC(=O)[C@H](CCC(=O)O)NC(=O)C(C)(C)NC(=O)[C@@H](N)Cc1c[nH]cn1)[C@@H](C)O)[C@@H](C)O)[C@@H](C)CC)[C@@H](C)CC)C(=O)N[C@@H](CCC(=O)O)C(=O)NCC(=O)NCC(=O)N1CCC[C@H]1C(=O)N[C@@H](CO)C(=O)N[C@@H](CO)C(=O)NCC(=O)N[C@@H](C)C(=O)N1CCC[C@H]1C(=O)N1CCC[C@H]1C(=O)N1CCC[C@H]1C(=O)N[C@@H](CO)C(N)=O` [Example 163] (H-H[Aib]EGT[αMePhe(2-F)]TSDYSI[αMeL]LDEK([AEEA-AEEA-γGlu-C20 diacid])AQ[Aib]EFIEYLIEGGPSSGAPPPS-NH2) here?
**A.** 117 nM

**Q.** And the Ki [2]?
**A.** 0.116 nM

**Q.** And the EC50 [3]?
**A.** 0.0316 nM

**Q.** And the EC50 [4]?
**A.** 0.121 nM

**Q.** What about the Ki [5] of the same compound?
**A.** 10.8 nM
